Experimental data reported in ChEMBL document CHEMBL5042526, “Design, Synthesis, and Biological Evaluation of Triazolone Derivatives as Potent PPARα/δ Dual Agonists for the Treatment of Nonalcoholic Steatohepatitis” (J Med Chem, 2022).
Calls of active or inactive are those of the source. The rule behind the calls is not given here.

What was measured:
C2C12 [1] = experiment: Agonist activity against PPARalpha/delta (unknown origin) assessed as upregulation of Pdk4 mRNA expression in […] cells at 8 nM incubated for 12 hrs by RT-PCR analysis; assay type: cell-based; settings: filed as agonist
C2C12 [2] = experiment: Agonist activity against PPARalpha/delta (unknown origin) assessed as upregulation of Angpt14 mRNA expression in […] cells incubated for 12 hrs by RT-PCR analysis; assay type: cell-based; settings: filed as agonist, dose 8-200 nM
THP-1 = experiment: Anti-inflammatory activity in human THP1-derived macrophages assessed as decrease in secretion of LPS-induced TNF-alpha level at 8 to 200 nM for 12 hrs by ELISA kit method; assay type: functional, cell-based; settings: dose 8-200 nM
Mus musculus [3] = experiment: In vivo agonist activity at PPARalpha/delta assessed as upregulation of -Grhpr mRNA expression in C57BL/6Nifdc mouse liver at 10 mg/kg, po for 4 days; assay type: functional, organism-based; settings: time 4.0 day
HepG2 [4] = experiment: Agonist activity against PPARalpha/delta (unknown origin) assessed as upregulation of CPT1A mRNA expression in human HepG2 cells incubated for 12 hrs by RT-PCR analysis; assay type: cell-based; settings: filed as agonist, dose 8-200 nM
HepG2 [5] = experiment: Agonist activity against PPARalpha/delta (unknown origin) assessed as upregulation of PDK4 mRNA expression in human HepG2 cells at 8 nM incubated for 12 hrs by RT-PCR analysis; assay type: cell-based; settings: filed as agonist
Mus musculus [6] = experiment: In vivo agonist activity at PPARalpha/delta assessed as upregulation of Cdkn1a mRNA expression in C57BL/6Nifdc mouse liver at 10 mg/kg, po for 4 days; assay type: functional, organism-based; settings: time 4.0 day
Mus musculus [7] = experiment: Anti-NASH activity in HF-CDAA-induced nonalcoholic steatohepatitis C57BL/6JNifdc mouse model assessed as reversal of inflammatory infilitration 3 to 30 mg/kg, po by H and E staining method; assay type: functional, organism-based; settings: dose 3-30 mg/kg
AML12 = experiment: Agonist activity against PPARalpha/delta (unknown origin) assessed as upregulation of Cpt1A mRNA expression in […] cells at 8 nM incubated for 12 hrs by RT-PCR analysis; assay type: cell-based; settings: filed as agonist
C2C12 [8] = experiment: Agonist activity against PPARalpha/delta (unknown origin) assessed as upregulation of Cpt1A mRNA expression in […] cells incubated for 12 hrs by RT-PCR analysis; assay type: cell-based; settings: filed as agonist, dose 8-200 nM
C2C12 [9] = experiment: Agonist activity against PPARalpha/delta ( unknown origin) assessed as upregulation of Pdk4 mRNA expression in […] cells incubated for 12 hrs by RT-PCR analysis; assay type: cell-based; settings: filed as agonist, dose 8-200 nM
[10] = molecular target: T1, Nuclear receptor subfamily 1 group I member 2 (Homo sapiens, UniProt O75469); experiment: Agonist activity at human PXR (138 to 434 residues) in Cos7 cells transfected with LBD-Gal4 and pGL435 Gal4 UAS Luc reporter plasmid at 10 uM by reporter gene assay; assay type: cell-based; settings: cos7, 10 µM
T1 sequence (O75469 whole entry): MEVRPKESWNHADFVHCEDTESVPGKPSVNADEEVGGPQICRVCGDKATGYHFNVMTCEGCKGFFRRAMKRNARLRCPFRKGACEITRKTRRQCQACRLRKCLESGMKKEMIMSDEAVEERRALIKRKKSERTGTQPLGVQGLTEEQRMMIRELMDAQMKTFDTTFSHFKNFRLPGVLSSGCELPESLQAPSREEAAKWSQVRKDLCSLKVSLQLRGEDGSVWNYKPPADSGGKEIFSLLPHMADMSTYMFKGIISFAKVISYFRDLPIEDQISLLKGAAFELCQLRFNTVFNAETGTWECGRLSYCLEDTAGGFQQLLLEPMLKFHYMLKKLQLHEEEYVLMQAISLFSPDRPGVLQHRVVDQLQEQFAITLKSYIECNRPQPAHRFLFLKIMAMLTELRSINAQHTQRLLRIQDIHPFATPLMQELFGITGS

Mus musculus [11] = experiment: In vivo agonist activity against PPARalpha/delta assessed as upregulation of Abcg2 mRNA expression in C57BL/6Nifdc mouse liver at 10 mg/kg, po for 4 days; assay type: functional, organism-based; settings: time 4.0 day
HepG2 [12] = experiment: Agonist activity against PPARalpha/delta (unknown origin) assessed as upregulation of ACADVL mRNA expression in human HepG2 cells at 8 nM incubated for 12 hrs by RT-PCR analysis; assay type: cell-based; settings: filed as agonist
Mus musculus [13] = experiment: In vivo agonist activity against PPARalpha/delta assessed as upregulation of Plin5 mRNA expression in C57BL/6Nifdc mouse skeletal muscle at 10 mg/kg, po for 4 days; assay type: functional, organism-based; settings: time 4.0 day
Mus musculus [14] = experiment: In vivo agonist activity against PPARalpha/delta assessed as upregulation of Slc25a20 mRNA expression in C57BL/6Nifdc mouse skeletal muscle at 10 mg/kg, po for 4 days; assay type: functional, organism-based; settings: time 4.0 day

Cc1cc(Cn2ncn(-c3ccc(OC(F)(F)F)cc3)c2=O)cc(C)c1OC(C)(C)C(=O)O
Activity (C2C12 [1]): Active | Activity (C2C12 [2]): Dose-Dependent Effect | Activity (THP-1): Active | Activity (Mus musculus [3]): Active | Activity (HepG2 [4]): Dose-Dependent Effect | Activity (HepG2 [5]): Active | Activity (Mus musculus [6]): Active | Activity (Mus musculus [7]): Active | Activity (AML12): Active | Activity (C2C12 [8]): Dose-Dependent Effect | Activity (C2C12 [9]): Dose-Dependent Effect | Activity [10]: Not Active | Activity (Mus musculus [11]): Active | Activity (HepG2 [12]): Active | Activity (Mus musculus [13]): Active | Activity (Mus musculus [14]): Active
